Source: ChEMBL document CHEMBL5465560, “Selectivity Literature for EUbOPEN Chemogenomic Library” (2024)
Blank lines part the entries; values can stand above or below the compound they belong to.

How the values were obtained:
[1] = target: Calcium/calmodulin-dependent protein kinase type II subunit alpha (Homo sapiens, UniProt Q9UQM7); details: at 10 µM
[2] = target: MAP kinase-interacting serine/threonine-protein kinase 1 (Homo sapiens) (UniProt Q9BUB5); assay: Selectivity interaction (KinomeScan (DiscoverX)) EUB0000655a MKNK1; details: at 10 µM
MAP kinase-interacting serine/threonine-protein kinase 1 (Homo sapiens), sequence (Q9BUB5 whole entry, looked up): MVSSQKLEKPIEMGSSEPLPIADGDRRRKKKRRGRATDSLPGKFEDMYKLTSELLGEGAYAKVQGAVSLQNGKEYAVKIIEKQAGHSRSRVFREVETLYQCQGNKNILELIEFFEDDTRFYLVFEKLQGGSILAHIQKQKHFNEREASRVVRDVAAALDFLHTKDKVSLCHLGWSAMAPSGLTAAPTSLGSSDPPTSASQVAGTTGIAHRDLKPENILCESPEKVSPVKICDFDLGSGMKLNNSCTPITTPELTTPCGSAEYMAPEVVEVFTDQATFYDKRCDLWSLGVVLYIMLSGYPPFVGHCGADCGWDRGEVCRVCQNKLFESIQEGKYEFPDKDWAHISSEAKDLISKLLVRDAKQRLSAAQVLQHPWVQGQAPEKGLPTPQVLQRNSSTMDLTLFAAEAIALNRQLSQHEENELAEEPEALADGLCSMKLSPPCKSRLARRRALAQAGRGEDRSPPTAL

[3] = target: T1, Serine/threonine-protein kinase Nek1 (Homo sapiens) (UniProt Q96PY6); assay: Selectivity interaction (KinomeScan (DiscoverX)) EUB0001079a NEK1; details: at 1 µM
T1 sequence (whole entry): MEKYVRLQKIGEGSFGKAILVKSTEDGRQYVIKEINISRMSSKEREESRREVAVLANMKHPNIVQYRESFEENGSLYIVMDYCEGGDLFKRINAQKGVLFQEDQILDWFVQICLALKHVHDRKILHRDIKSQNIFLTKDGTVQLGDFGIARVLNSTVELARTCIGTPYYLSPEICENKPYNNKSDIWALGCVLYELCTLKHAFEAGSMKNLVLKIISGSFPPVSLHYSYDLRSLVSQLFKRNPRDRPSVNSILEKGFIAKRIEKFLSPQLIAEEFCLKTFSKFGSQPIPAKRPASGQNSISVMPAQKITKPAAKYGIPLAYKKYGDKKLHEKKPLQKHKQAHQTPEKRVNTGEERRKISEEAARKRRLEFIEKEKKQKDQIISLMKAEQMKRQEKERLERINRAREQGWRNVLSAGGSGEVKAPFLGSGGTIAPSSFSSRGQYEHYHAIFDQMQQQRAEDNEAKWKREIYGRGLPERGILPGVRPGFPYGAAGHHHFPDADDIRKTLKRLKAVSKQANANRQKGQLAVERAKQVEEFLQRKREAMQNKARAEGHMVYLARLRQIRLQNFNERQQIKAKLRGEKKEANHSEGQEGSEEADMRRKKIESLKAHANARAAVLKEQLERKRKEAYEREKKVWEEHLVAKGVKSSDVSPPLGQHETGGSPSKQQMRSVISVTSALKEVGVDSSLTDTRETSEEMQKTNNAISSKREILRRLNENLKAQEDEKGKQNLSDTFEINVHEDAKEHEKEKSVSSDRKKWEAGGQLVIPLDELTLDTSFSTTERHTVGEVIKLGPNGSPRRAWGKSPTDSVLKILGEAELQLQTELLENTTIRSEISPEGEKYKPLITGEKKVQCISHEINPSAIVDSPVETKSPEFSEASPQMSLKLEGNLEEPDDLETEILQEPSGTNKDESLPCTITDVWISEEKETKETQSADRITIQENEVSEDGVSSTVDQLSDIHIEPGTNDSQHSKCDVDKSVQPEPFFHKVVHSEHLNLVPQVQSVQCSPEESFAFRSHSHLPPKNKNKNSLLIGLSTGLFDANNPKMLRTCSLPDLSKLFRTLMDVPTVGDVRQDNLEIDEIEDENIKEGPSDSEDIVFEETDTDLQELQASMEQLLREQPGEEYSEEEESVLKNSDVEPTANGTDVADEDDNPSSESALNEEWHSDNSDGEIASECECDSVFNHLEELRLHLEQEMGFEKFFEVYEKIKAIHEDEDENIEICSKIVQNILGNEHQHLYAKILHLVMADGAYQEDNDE

[4] = target: T2, Ephrin type-A receptor 1 (Homo sapiens) (UniProt P21709); assay: Selectivity interaction (KinomeScan (DiscoverX)) EUB0000092b EPHA1; details: at 10 µM
T2 sequence (whole entry): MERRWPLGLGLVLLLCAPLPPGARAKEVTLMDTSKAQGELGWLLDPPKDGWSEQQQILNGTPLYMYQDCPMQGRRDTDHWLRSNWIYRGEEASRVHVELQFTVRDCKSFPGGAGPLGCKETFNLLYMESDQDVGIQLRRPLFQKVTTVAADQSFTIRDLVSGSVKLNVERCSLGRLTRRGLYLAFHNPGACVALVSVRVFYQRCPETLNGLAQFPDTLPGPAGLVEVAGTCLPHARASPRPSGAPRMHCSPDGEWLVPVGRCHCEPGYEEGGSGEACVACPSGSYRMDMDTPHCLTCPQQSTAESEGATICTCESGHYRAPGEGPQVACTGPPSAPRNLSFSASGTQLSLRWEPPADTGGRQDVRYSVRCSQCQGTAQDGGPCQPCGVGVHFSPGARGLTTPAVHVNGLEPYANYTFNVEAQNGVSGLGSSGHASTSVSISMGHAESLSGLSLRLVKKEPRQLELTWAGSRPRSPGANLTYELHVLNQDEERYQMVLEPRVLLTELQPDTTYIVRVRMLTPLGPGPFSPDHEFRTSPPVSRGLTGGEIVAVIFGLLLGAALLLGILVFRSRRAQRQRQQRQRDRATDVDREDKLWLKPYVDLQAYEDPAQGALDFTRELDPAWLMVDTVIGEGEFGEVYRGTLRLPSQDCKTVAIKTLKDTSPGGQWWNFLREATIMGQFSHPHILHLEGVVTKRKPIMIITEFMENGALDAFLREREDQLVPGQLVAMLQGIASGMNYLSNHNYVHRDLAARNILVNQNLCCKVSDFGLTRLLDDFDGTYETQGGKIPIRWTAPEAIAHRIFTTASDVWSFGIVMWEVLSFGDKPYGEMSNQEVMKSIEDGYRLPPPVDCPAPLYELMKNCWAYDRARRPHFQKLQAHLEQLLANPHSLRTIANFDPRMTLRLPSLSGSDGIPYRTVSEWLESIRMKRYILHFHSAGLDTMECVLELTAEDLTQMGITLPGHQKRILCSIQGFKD

Calcium/calmodulin-dependent protein kinase type II subunit alpha, sequence (Q9UQM7 whole entry): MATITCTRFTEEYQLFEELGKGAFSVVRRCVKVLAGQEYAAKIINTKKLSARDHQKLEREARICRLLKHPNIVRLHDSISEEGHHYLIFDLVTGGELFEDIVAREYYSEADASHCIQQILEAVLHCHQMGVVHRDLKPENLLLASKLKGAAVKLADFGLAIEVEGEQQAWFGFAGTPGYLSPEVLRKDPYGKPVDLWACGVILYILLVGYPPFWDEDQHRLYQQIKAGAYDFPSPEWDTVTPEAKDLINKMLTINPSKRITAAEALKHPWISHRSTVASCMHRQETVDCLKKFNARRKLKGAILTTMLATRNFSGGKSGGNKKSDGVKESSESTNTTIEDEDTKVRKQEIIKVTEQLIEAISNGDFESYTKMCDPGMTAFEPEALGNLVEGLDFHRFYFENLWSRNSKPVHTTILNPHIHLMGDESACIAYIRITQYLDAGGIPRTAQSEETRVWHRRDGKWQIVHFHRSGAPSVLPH

% of control [1]: 100%
Compound: CCN(CC)CCCCNc1ncc2cc(-c3cc(OC)cc(OC)c3)c(NC(=O)NC(C)(C)C)nc2n1

Compound: CN(C)CCOc1ccc(-c2nc(-c3ccncc3)c(-c3ccc4c(c3)CC/C4=N\O)[nH]2)cc1
% of control [2]: 81%

Compound: Nc1cnc(N2CCc3cc(S(=O)(=O)Nc4c(F)cc(Cl)cc4F)cc(N4CCCC4=O)c32)nc1 [TP-020n]
% of control [3]: 46%

Compound: CCC(=O)N1CCN(c2ccc(-n3c(=O)ccc4cnc5ccc(-c6cnc7ccccc7c6)cc5c43)cc2C(F)(F)F)CC1
% of control [4]: 62%
